The values that follow come from EP1192131B1, “METHOD OF INHIBITING AMYLOID PROTEIN AGGREGATION AND IMAGING AMYLOID DEPOSITS USING ISOINDOLINE DERIVATIVES” (Warner-Lambert Company LLC, priority 1999, dated 2000).

Values joined by “and” are separate entries in the source; they are usually repeats but may differ in a detail not shown here. Equal entries are not always repeated. Where two headings read alike, the source gives them in different places. Where only a bound is given, the exact number is not on record here.

Assay [1] deals with T1, Aβ (1-40) peptide (Homo sapiens, UniProt P05067).
T1 construct: 10 µL 0.5 mg/mL Aβ (1-40) peptide in 20% HFIP
T1 sequence (P05067 672-711): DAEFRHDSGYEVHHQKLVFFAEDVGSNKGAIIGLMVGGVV
The experiment in a line: BAPA (Beta-Amyloid Peptide Aggregation, pH 6.0), filtration endpoint assay. It is filed as biochemical. Here is the method: BAPA (Beta-Amyloid Peptide Aggregation
This assay is used to provide a measure of inhibition by a compound against the aggregation behavior of the beta amyloid peptide.
The purpose of this assay is to provide a higher volume method of assaying the amount of beta amyloid aggregation using an endpoint assay based on filtration. In this assay, hexafluoroisopropanol (HFIP) is used to break down the initial amyloid peptide to a monomer state and use a concentration of 33 µM which is high enough so that aggregation will occur at pH 6.0 in several hours.
β-Amyloid Peptide Aggregation. pH 6 0 (BAPA)
In a 96-well plate (Costar 3794), we add 25 µL 50 mM Phosphate Buffer, pH 6.0, 10 µL 0.5 mg/mL Aβ (1-40) peptide in 20% HFIP + 0.1 µL/assay radioiodinated ^125I Aβ (1-40) [^125I Aβ(1-40)], and 1 µL of the compound to be tested starting at 50 mM with a concentration of DMSO <1%. Then, we incubate for 2 to 4 hours at room temperature. We stop the reaction with 200 µL of 50 mM phosphate buffer, pH 6.0, and filter it through a 0.2 µm 96-well filter plate (Millipore MAGU N22) We wash the filter plate with 100 µL of the same phosphate buffer. Aggregation was detected on a Microbeta counter after impregnating the filters with Meltilex (1450-441) and is corrected for background

In assay [2] the target is Aβ(1-40) (Homo sapiens, UniProt P05067). Briefly: BASST (Beta-Amyloid Self-seeding, ThioflavinT), inhibition of self-seeded amyloid fibril growth. It is filed as biochemical. Also noted: 30 µM soluble Aβ (1-40) in deionized water in assay buffer. Conditions: 30 µM soluble Aβ (1-40), 37°C, 3 to 5 hours, thioflavin T fluorescence, letter in parentheses = lot of compound (no letter = Lot P). On the procedure:
BASST (Beta-Amyloid Self-seeding, ThioflavinT)
An assay for inhibitors of self-seeded amyloid fibril growth
Assay Buffer - 50 mM sodium phosphate, pH 7.5, 100 mM NaCl, 0.02% NaN3, 1 M urea (filter and store at 4°C).
Soluble Aβ (1-40) - 2.2 mg/mL in deionized H2O (store in aliquots at -20°C, keep on ice when thawed) will self-seed after 1 week storage. Typically, the solution should be stored until no lag phase is seen in the assay.
Final assay conditions: 30 µM soluble Aβ (1-40) in deionized water in assay buffer. Compound to be tested is dissolved in DMSO, typically 5-50 mM stock, such that the final concentration of DMSO is <1% v/v in the assay.
Assay: Reaction mixture for 50 assays (on ice) comprised of 1 µL of soluble Aβ (1-40) + 13.5 µL assay buffer per assay. The following are the amounts of the components of the reaction mixture that result in each of the 50 assay wells. 50 µL soluble Aβ (1-40) 675 µL assay buffer
• 1) Prepare the reaction mix above by mixing the components and storing on ice. • 2) Pipet 14.5 µL of reaction mixture into each of 50 wells of a polystyrene U-bottom 96-well microtiter plate (Coming 25881-96) on ice. • 3) Add 1.7 µL of diluted compound to be tested to each well in a column of eight, including solvent control. Serial 3-fold dilutions from 1 mM (100 µM final) in assay buffer -urea = 7 dilutions + zero. Each 96-well plate can therefore accommodate 11 samples + 1 Congo Red control (0.039-5 µM final in 2-fold steps). • 4) Seal the plate with aluminum film and incubate for 10 minutes on ice. • 5) Raise the temperature to 37°C and incubate for 3 to 5 hours (depends on the lot of the peptide). • 6) Remove the aluminum film and add 250 µL/well of 5 µM thioflavin T (ThT) [T-3516, Sigma-Aldrich] in 50 mM glycine-NaOH, pH 8.5. Read fluorescence on a plate reader (ex = 440 nm/20 nm; em = 485 nm/20 nm) within 5 minutes.

[3] abbreviates: read-out: BAPA IC50; Aβ (1-40) 33 µM, pH 6.0, 2 to 4 hours at room temperature; letter in parentheses = lot of compound (no letter = Lot P).
Where [4] appears, read: Aβ (1-40) 33 µM, pH 6.0, 2 to 4 hours at room temperature; letter in parentheses = lot of compound (no letter = Lot P); read-out: BAPA IC50.
Where [5] appears, read: read-out: BASST IC50 (converted).

Chain of Aβ(1-40) (P05067 672-711): as above

Regarding `O=C(O)c1ccccc1Nc1ccc2c(c1)CN(c1ccc(Cl)c(C(F)(F)F)c1)C2` [Example 10, 2-[2-(4-Chloro-3-trifluoromethylphenyl)-2,3-dihydro-1H-isoindol-5-ylamino]benzoic acid], the IC50 (commonly the concentration that inhibits the measured activity by half) in assay [1] (setting [3]) amounted to 16 µM; in assay [2] (read-out: BASST IC50), 3 µM.

For `O=C(O)c1cc([N+](=O)[O-])ccc1Nc1ccc2c(c1)CN(c1ccc(Cl)c(C(F)(F)F)c1)C2` [Example 19, 2-[2-(4-Chloro-3-trifluoromethyl-phenyl)-2,3-dihydro-1H-isoindol-5-ylamino]-5-nitro-benzoic acid], the values for the IC50 in assay [1] (setting [3]) and in assay [2] (read-out: BASST IC50) were greater than 10 µM and 1 µM, respectively.

Turning to `O=C(O)c1cc([N+](=O)[O-])ccc1Nc1ccc2c(c1)CN(c1ccc(Cl)cc1)C2` [Example 15, 2-[2-(4-Chloro-phenyl)-2,3-dihydro-1H-isoindol-5-ylamino]-5-nitro-benzoic acid], the IC50 in assay [1] (setting [4]) was greater than 100 µM; in assay [2] (setting [5]), 0.6 µM.

In the case of `COc1cccc(N2Cc3ccc(Nc4ccc([N+](=O)[O-])cc4C(=O)O)cc3C2)c1` [Example 21, 2-[2-(3-Methoxy-phenyl)-2,3-dihydro-1H-isoindol-5-ylamino]-5-nitro-benzoic acid], the IC50 is greater than 60 µM in assay [1] (setting [4]) and 0.7 µM in assay [2] (setting [5]).

On to `COc1cccc(N2Cc3ccc(Nc4ccccc4C(=O)O)cc3C2)c1` [Example 26, 2-[2-(3-Methoxy-phenyl)-2,3-dihydro-1H-isoindol-5-ylamino]-benzoic acid], for which the values for the IC50 in assay [1] (setting [4]) and in assay [2] (setting [5]) were greater than 60 µM and 10 µM, respectively.

For `Nc1ccc(Nc2ccc3c(c2)CN(c2ccc(Cl)c(Cl)c2)C3)c(C(=O)O)c1` [Example 17, 5-Amino-2-[2-(3,4-dichloro-phenyl)-2,3-dihydro-1H-isoindol-5-ylamino]-benzoic acid], the figures for the IC50 in assay [1] (setting [4]) and in assay [2] (setting [5]) were 40 µM and 1.5 µM, respectively.

In the case of “2-[2-(3-chlorophenyl)-2,3-dihydro-1H-isoindol-5-ylamino]benzoic acid [Example 7]”, the IC50 in assay [1] (setting [4]) is 28 µM; in assay [2] (setting [5]), 1.1 µM.

`O=C(O)c1ccccc1Nc1ccc2c(c1)CN(c1ccc(Cl)c(Cl)c1)C2` [Example 4, 2-[2-(3,4-Dichlorophenyl)-2,3-dihydro-1H-isoindol-5-ylamino]benzoic acid]: the IC50 in assay [1] (setting [4]) is 101 µM and > 100 µM and 93 µM; in assay [2] (setting [5]), 2 µM.

`O=C(O)c1cc(F)ccc1Nc1ccc2c(c1)CN(c1ccc(Cl)c(Cl)c1)C2` [Example 23, 2-[2-(3,4-Dichloro-phenyl)-2,3-dihydro-1H-isoindol-5-ylamino]-5-fluoro-benzoic acid]: the IC50 is 62 µM in assay [1] (setting [4]); 3 µM and 2 µM (2×) in assay [2] (setting [5]).

Consider `O=C(O)c1cc([N+](=O)[O-])ccc1Nc1ccc2c(c1)CN(c1ccccc1)C2` [Example 18, 5-Nitro-2-(2-phenyl-2,3-dihydro-1H-isoindol-5-ylamino)-benzoic acid], for which the half-inhibitory concentration (IC50) in assay [1] (setting [4]) is 97 µM; in assay [2] (setting [5]) it was 0.9 µM and 1 µM and 0.6 µM.

With “2-[2-(4-chlorophenyl)-2,3-dihydro-1H-isoindol-5-ylamino]benzoic acid [Example 8]”, the results for the IC50 in assay [1] (setting [4]) and in assay [2] (setting [5]) were 19 µM and 1 µM, respectively.

Consider “2-[2-(3,4-Dimethylphenyl)-2,3-dihydro-1H-isoindol-5-ylamino]benzoic acid [Example 9]”, for which the IC50 was 13 µM in assay [1] (setting [4]) and 1.5 µM in assay [2] (setting [5]).

On to `COc1cc(Nc2ccc3c(c2)CN(c2ccc(Cl)c(Cl)c2)C3)c(C(=O)O)cc1[N+](=O)[O-]` [Example 6, 2-[2-(3,4-Dichlorophenyl)-2,3-dihydro-1H-isoindol-5-ylamino]-4-methoxy-5-nitro-benzoic acid], for which the IC50 in assay [1] (setting [4]) is 14 µM; in assay [2] (setting [5]), 1 µM and 1.5 µM.

Take `COc1cc(N2Cc3ccc(Nc4ccccc4C#N)cc3C2)cc(OC)c1OC` [Example 25, 2-[2-(3,4,5-Trimethoxy-phenyl)-2,3-dihydro-1H-isoindol-5-ylamino]-benzonitrile]: the IC50 in assay [1] (setting [4]) was 25 µM; in assay [2] (setting [5]) it was 15 µM.

On to `O=C(O)c1ccccc1Nc1ccc2c(c1)CN(c1cccc(F)c1)C2` [Example 22, 2-[2-(3-Fluoro-phenyl)-2,3-dihydro-1H-isoindol-5-ylamino]-benzoic acid], for which the IC50 was greater than 60 µM in assay [1] (setting [4]); 6 µM and 2 µM in assay [2] (setting [5]).

For `Cc1ccc(N2Cc3ccc(Nc4ccc([N+](=O)[O-])cc4C(=O)O)cc3C2)cc1C` [Example 12, 2-[2-(3,4-Dimethyl-phenyl)-2,3-dihydro-1H-isoindol-5-ylamino]-5-nitro-benzoic acid], the results for the IC50 in assay [1] (setting [4]) and in assay [2] (setting [5]) were 5 µM and 1.1 µM, respectively.

For the compound `Clc1ccc(N2Cc3ccc(Nc4ccccc4-c4nnn[nH]4)cc3C2)cc1Cl` [Example 16, [2-(3,4-Dichloro-phenyl)-2,3-dihydro-1H-isoindol-5-yl]-[2-(1H-tetrazol-5-yl)-phenyl]-amine], the values for the IC50 in assay [1] (setting [4]) and in assay [2] (setting [5]) were 86 µM and 1.8 µM, respectively.

For the compound `O=C(O)c1cc([N+](=O)[O-])ccc1Nc1ccc2c(c1)CN(c1cccc(F)c1)C2` [Example 20, 2-[2-(3-Fluoro-phenyl)-2,3-dihydro-1H-isoindol-5-ylamino]-5-nitro-benzoic acid], the IC50 was greater than 60 µM in assay [1] (setting [4]) and 2 µM in assay [2] (setting [5]).
